Experimental data published in patent publication US10639306B2, “Aldose reductase inhibitors and uses thereof” (The Trustees of Columbia University in the City of New York, priority 2010, dated 2020).
Read-outs that look alike come from different tables or passages of the source.

Legend:
[1] = Solubility in Krebs-Henseleit buffer; format: physicochemical; conditions: Krebs-Henseleit buffer with glucose, palmitate, bovine serum albumin, insulin
[2] = format: physicochemical; conditions: for Area (integration of absorbance peak): 3 min, pH 7.1
Method: Each sample of Compound A & zopolrestat were placed, separately, in water (MQW ultra nanopure) at ambient temperature and vortexed for 3 minutes. The aliquots were then filtered through a tightly-packed cotton plug (placed in a pipette) to remove any residual solids. The attempted concentrations of the respective solutions of Compound A and zopolrestat made were 0.05 mg/mL, 0.1 mg/mL, 0.5 mg/mL, 1.0 mg/mL, 5.0 mg/mL, and 10.0 mg/mL. The pH of the water used was 7.1 (measured electronically by an Orion perpHect LogR Meter Model #370).
The filtered samples were run through a binary gradient (program: 5%-100% MeCN over 30 mins) on a LC-MS (Shimadzu LCMS-2010A Liquid Chromatography Mass Spectrometer, reverse-phase column). A 5 μL volume of each sample solution was injected for each run. Each trace contained a peak (for Compound A, TR approx. 14.070 mins; for zopolrestat, TR approx. 16.666 mins) measured at a wavelength of 254 nm for which the respective parent ion masses were observed.
By comparing the absorbance areas under the peaks corresponding to Compound A & zopolrestat in each water solution made (Table 1), a solubility curve for each compound was generated (FIG. 1).

[3] = molecular target: human recombinant aldose reductase (Homo sapiens, UniProt P15121); assay: biochemical
Method: The reductase activity of Compound A and zopolrestat were spectrophotometrically assayed by following the decrease of NADPH at 25° C. for 4 min as described in Sato, S. (1992), “Rat kidney aldose reductase and aldehyde reductase and polyolproduction in rat kidney” Am. J. Physiol. 263, F799.F805, incorporated by reference herein in its entirety.
Briefly, the reaction mixture (total volume 1 ml) contained 0.1 mM NADPH, 100 mM substrate (DL-glyceraldehyde or L-xylose) and human recombinant aldose reductase (100 mU) in 0.1 M phosphate buffer, pH 6.2. The head to head experiment was carried out in a microplate assay for AR inhibition using D-Glyceraldehyde and NADPH and the absorbance changes were monitored at 340 nm and % inhibition was calculated for ARIs at concentrations ranging from 0.1 nM to 100 μM (Table 2 and FIG. 2). Data is presented as mean±standard deviation and is an average of 5 separate runs. The reaction was started by adding the substrate (glyceraldehyde or xylose) as well as the same reaction mixture in which the substrate replaced by deionized water was used as a control. One enzyme unit (U) was defined as the activity consuming 1 μmole of NADPH per min at 25° C.

Compound: O=C(O)Cc1nn(Cc2nc3cc(Cl)ccc3s2)c(=O)c2nccnc12
- melting point: 196 to 197 °C

Compound: O=C(O)Cc1nn(Cc2nc3cc(C(F)(F)F)ccc3s2)c(=O)c2nccnc12 [Compound A, 2-(8-oxo-7-((5-(trifluoromethyl)benzo[d]thiazol-2-yl)methyl)-7,8-dihydropyrazino[2,3-d]pyridazin-5-yl)acetic acid]
- Solubility in Krebs-Henseleit buffer [1]: soluble without any precipitation or turbidity
- Solubility in pH 7.1 water relative to Zopolrestat [2]: significantly greater solubility
- Area (integration of absorbance peak) ([2]; 0.05 mg/mL): 1811131
- Area (integration of absorbance peak) ([2]; 0.1 mg/mL): 3221003
- Area (integration of absorbance peak) ([2]; 0.5 mg/mL): 5814304
- Area (integration of absorbance peak) ([2]; 1 mg/mL): 10515430
- Area (integration of absorbance peak) ([2]; 5 mg/mL): 17216187
- Area (integration of absorbance peak) ([2]; 10 mg/mL): 20397336
- IC50 [3]: 0.0289 nM
- Activity relative to zopolrestat in vitro against aldose reductase ([3]; fold more active than zopolrestat): approximately 100 ×

Compound: O=C(O)Cc1nn(Cc2nc3cc(C(F)(F)F)ccc3s2)c(=O)c2ccccc12 [zopolrestat, reference compound]
- Solubility in Krebs-Henseleit buffer [1]: heat was applied to render zopolrestat soluble
- Area (integration of absorbance peak) ([2]; 0.05 mg/mL): 1039247
- Area (integration of absorbance peak) ([2]; 0.1 mg/mL): 1899466
- Area (integration of absorbance peak) ([2]; 0.5 mg/mL): 4304556
- Area (integration of absorbance peak) ([2]; 1 mg/mL): 6129559
- Area (integration of absorbance peak) ([2]; 5 mg/mL): 13314544
- Area (integration of absorbance peak) ([2]; 10 mg/mL): 13362465
- inhibition at 1 pM [3]: 11%
- inhibition at 10 pM [3]: 29%
